Counter-ions that a name gives are not always drawn.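 Values below derive from 48-hour exposures of cells grown in 96-well plates, with endpoints linearly interpolated between the two concentrations bracketing the appropriate inhibition level. The concentration for 50% growth inhibition is given as GI50.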 Calls of active or inactive are those of the source. Cut-off read from the data, not from the text of the source: active = GI50 up to about 1.1 µM and inactive = higher.
How the values were obtained:
Assay in all cases: growth of human tumour cells (NCI), 48 h
NCI-H23 = test system: NCI-H23
MDA-N = test system: MDA-N
SW-620 = test system: SW-620
CCRF-CEM = test system: CCRF-CEM
SK-MEL-28 = test system: SK-MEL-28
T47D = test system: T47D
UACC-62 = test system: UACC-62
A549 = test system: A549
Malme-3M = test system: Malme-3M
DU-145 = test system: DU-145
PC-3 = test system: PC-3
KM12 = test system: KM12
COLO 205 = test system: COLO 205
EKVX = test system: EKVX
IGROV-1 = test system: IGROV-1
SN12C = test system: SN12C
HL-60 = test system: HL-60
M14 = test system: M14
SK-MEL-5 = test system: SK-MEL-5
TK-10 = test system: TK-10
HT-29 = test system: HT-29
HOP-62 = test system: HOP-62
OVCAR-8 = test system: OVCAR-8
MCF7 = test system: MCF7
SNB-75 = test system: SNB-75
UACC-257 = test system: UACC-257
HCC 2998 = test system: HCC 2998
786-0 = test system: 786-0
CAKI-1 = test system: CAKI-1
SF-268 = test system: SF-268
K562 = test system: K562
MOLT-4 = test system: MOLT-4
RXF 393 = test system: RXF 393
LOX IMVI = test system: LOX IMVI
SK-OV-3 = test system: SK-OV-3
MDA-MB-231 = test system: MDA-MB-231
HCT-15 = test system: HCT-15
RPMI-8226 = test system: RPMI-8226
SNB-19 = test system: SNB-19
MDA-MB-435 = test system: MDA-MB-435
SF-539 = test system: SF-539
NCI-H226 = test system: NCI-H226
OVCAR-4 = test system: OVCAR-4
SK-MEL-2 = test system: SK-MEL-2
NCI/ADR-RES = test system: NCI/ADR-RES
NCI-H460 = test system: NCI-H460
ACHN = test system: ACHN
OVCAR-5 = test system: OVCAR-5
HCT-116 = test system: HCT-116
U-251 = test system: U-251
SF-295 = test system: SF-295
OVCAR-3 = test system: OVCAR-3
Hs-578T = test system: Hs-578T
A498 = test system: A498
NCI-H522 = test system: NCI-H522

COc1cc2nc(N3CCN(C(=O)c4ccco4)CC3)nc(N)c2cc1OC [PRAZOSIN HYDROCHLORIDE]
GI50 (NCI-H23): 13.7 µM (inactive)

CCN(CC)CCC/N=c1\c2cc(OC)ccc2[nH]c2c([N+](=O)[O-])ccc(NCCCN(CC)CC)c12
GI50 (MDA-N): 5.77 µM (inactive) | GI50 (SW-620): 1.69 µM (inactive) | GI50 (CCRF-CEM): 0.479 µM (active) | GI50 (SK-MEL-28): > 10 µM (inactive) | GI50 (T47D): > 10 µM (inactive) | GI50 (UACC-62): > 10 µM (inactive) | GI50 (A549): 1.78 µM (inactive) | GI50 (Malme-3M): > 10 µM (inactive) | GI50 (DU-145): 5.13 µM (inactive) | GI50 (PC-3): 1.47 µM (inactive) | GI50 (KM12): 1.52 µM (inactive) | GI50 (COLO 205): 5.13 µM (inactive) | GI50 (EKVX): 3.97 µM (inactive) | GI50 (IGROV-1): 3.42 µM (inactive) | GI50 (SN12C): 2.04 µM (inactive) | GI50 (HL-60): 0.3 µM (active) | GI50 (M14): > 10 µM (inactive) | GI50 (SK-MEL-5): 9.42 µM (inactive) | GI50 (TK-10): 8.24 µM (inactive) | GI50 (HT-29): 1.6 µM (inactive) | GI50 (HOP-62): 4.47 µM (inactive) | GI50 (OVCAR-8): 1.03 µM (active) | GI50 (MCF7): 1.54 µM (inactive) | GI50 (SNB-75): > 10 µM (inactive) | GI50 (UACC-257): > 10 µM (inactive) | GI50 (HCC 2998): 1.49 µM (inactive) | GI50 (786-0): 1.45 µM (inactive) | GI50 (NCI-H23): 2.26 µM (inactive) | GI50 (CAKI-1): 9.66 µM (inactive) | GI50 (SF-268): 2.87 µM (inactive) | GI50 (K562): 1.77 µM (inactive) | GI50 (MOLT-4): 0.484 µM (active) | GI50 (RXF 393): 1.95 µM (inactive) | GI50 (LOX IMVI): 1.34 µM (inactive) | GI50 (SK-OV-3): 3.08 µM (inactive) | GI50 (MDA-MB-231): 1.49 µM (inactive) | GI50 (HCT-15): 1.43 µM | GI50 (RPMI-8226): 1.72 µM (inactive)

CCOC(=O)c1[nH]c(-c2[nH]c(-c3[nH]c(-c4[nH]c(C(=O)OCC)c(C)c4C(=O)OCC)c(C(=O)OCC)c3C)c(C)c2C(=O)OCC)c(C(=O)OCC)c1C
GI50 (MDA-N): > 100 µM (inactive) | GI50 (SW-620): > 100 µM (inactive) | GI50 (CCRF-CEM): > 100 µM (inactive) | GI50 (SNB-19): > 100 µM (inactive) | GI50 (MDA-MB-435): > 100 µM (inactive) | GI50 (SF-539): > 100 µM (inactive) | GI50 (SK-MEL-28): > 100 µM (inactive) | GI50 (T47D): > 100 µM (inactive) | GI50 (UACC-62): > 100 µM (inactive) | GI50 (A549): > 100 µM (inactive) | GI50 (Malme-3M): > 100 µM (inactive) | GI50 (DU-145): > 100 µM (inactive) | GI50 (PC-3): > 100 µM (inactive) | GI50 (NCI-H226): > 100 µM (inactive) | GI50 (KM12): > 100 µM (inactive) | GI50 (OVCAR-4): > 100 µM (inactive) | GI50 (COLO 205): > 100 µM (inactive) | GI50 (EKVX): > 100 µM (inactive) | GI50 (IGROV-1): > 100 µM (inactive) | GI50 (SN12C): > 100 µM (inactive) | GI50 (SK-MEL-2): > 100 µM (inactive) | GI50 (HL-60): > 100 µM (inactive) | GI50 (NCI/ADR-RES): > 100 µM (inactive) | GI50 (NCI-H460): > 100 µM (inactive) | GI50 (M14): > 100 µM (inactive) | GI50 (SK-MEL-5): 50.4 µM (inactive) | GI50 (ACHN): > 100 µM (inactive) | GI50 (TK-10): > 100 µM (inactive) | GI50 (HT-29): > 100 µM (inactive) | GI50 (HOP-62): > 100 µM (inactive) | GI50 (OVCAR-5): > 100 µM (inactive) | GI50 (HCT-116): > 100 µM (inactive) | GI50 (OVCAR-8): > 100 µM (inactive) | GI50 (MCF7): > 100 µM (inactive) | GI50 (UACC-257): > 100 µM (inactive) | GI50 (U-251): > 100 µM (inactive) | GI50 (HCC 2998): > 100 µM (inactive) | GI50 (SF-295): > 100 µM (inactive) | GI50 (786-0): > 100 µM (inactive) | GI50 (NCI-H23): > 100 µM (inactive) | GI50 (OVCAR-3): > 100 µM (inactive) | GI50 (Hs-578T): > 100 µM (inactive) | GI50 (CAKI-1): > 100 µM (inactive) | GI50 (SF-268): > 100 µM (inactive) | GI50 (K562): > 100 µM (inactive) | GI50 (MOLT-4): > 100 µM (inactive) | GI50 (RXF 393): > 100 µM (inactive) | GI50 (LOX IMVI): > 100 µM (inactive) | GI50 (A498): > 100 µM (inactive) | GI50 (NCI-H522): > 100 µM (inactive) | GI50 (SK-OV-3): > 100 µM (inactive) | GI50 (MDA-MB-231): > 100 µM (inactive) | GI50 (HCT-15): > 100 µM | GI50 (RPMI-8226): > 100 µM (inactive)

— ChEMBL document CHEMBL1201862, “PubChem BioAssay data set” (2004)
